According to PMC4163096 (Bioorganic & medicinal chemistry letters, 2014):
Read-outs that look alike come from different tables or passages of the source. Values belong to the compound of their own block, whether it stands above or below them.

Key:
TSPO [1] = target: T1, TSPO (Rattus norvegicus, UniProt P16257); conditions: cited from earlier work; for Ki: read-out: Ki for TSPO in C6 glioma, C6 glioma
TSPO [2] = target: T1, TSPO; assay: Radiometric TSPO binding assay, [3H]PK11195 displacement in kidney lysate; parameters: species or system athymic nude rat; conditions: read-out: Kidney Ki, low-affinity binding (mixed affinity binding), versus [3H]PK11195, Ki ± S.E.M., low-affinity component
TSPO [3] = target: T1, TSPO; assay: Radiometric TSPO binding assay, [3H]PK11195 displacement in heart lysate; parameters: species or system athymic nude rat; conditions: for Ki: read-out: Heart Ki, versus [3H]PK11195, Ki ± S.E.M., triplicate
[4] = Radio-TLC analysis of plasma samples taken during PET scan; type: in vivo, male Wistar rats; conditions: samples at 2, 12, 30, 60 min, n=2, preliminary

Compound: COc1ccc(OC)c(CN(C(=O)CF)c2ccccc2Oc2ccccc2)c1 [compound 1]
Ki (TSPO [1]): 6.17 nM

Compound: CCc1cc(CC)n2nc(-c3ccc(OCCF)cc3)c(CC(=O)N(CC)CC)c2n1 [2b]
Ki (TSPO [1]): 0.27 nM

Compound: CCc1cc(CC)n2nc(-c3ccc(OCC[18F])cc3)c(CC(=O)N(CC)CC)c2n1 [[^18F]-2b, 2-(5,7-diethyl-2-(4-(2-[^18F]fluoroethoxy)phenyl)pyrazolo[1,5-a]pyrimidin-3-yl)-N,N– diethylacetamide]
enhancement in affinity compared to [18F]-2a (TSPO [1]; TSPO affinity): 36 fold

Now from value to compound:

Ki (TSPO [2]): 0.969 nM
Compound: CN(C)C(=O)Cc1nn(-c2ccc(F)cc2)c(=O)c2c1c1ccc(Cl)cc1n2C [compound 12]

Ki (TSPO [3]): 0.00118 ± 9e-05 nM
Compound: CN(C)C(=O)Cc1nn(-c2cccc([N+](=O)[O-])c2)c(=O)c2c1c1ccc(Cl)cc1n2C [compound 11]

% parent at 60 min [4]: > 90%
Compound: CN(C)C(=O)Cc1nn(-c2cccc([18F])n2)c(=O)c2c1c1ccc(Cl)cc1n2C [[^18F]-14, 7-chloro-N,N,5-trimethyl-4-oxo-3(6-[^18F]fluoropyridin-2-yl)-3,5-dihydro-4H-pyridazino[4,5-b]indole-1-acetamide]

Ki (TSPO [3]): 4.94 ± 0.662 nM
Heart Ki (TSPO [3]; versus [3H]PK11195, Ki ± S.E.M., triplicate): did not appreciably bind TSPO
Compound: CN(C)C(=O)Cc1nn(-c2ccccn2)c(=O)c2c1c1ccc(Cl)cc1n2C [compound 13]
